From patent publication US5491072A, “N-alkylacridan carboxyl derivatives useful for chemiluminescent detection” (Lumigen, Inc., priority 1993, dated 1996)

Experiments:
horseradish peroxidase = molecular target: T1, horseradish peroxidase (Armoracia rusticana, UniProt P00433); test: Comparison of compounds 1a-e at pH 8.9, time course and total intensity of chemiluminescence; format: biochemical; details: 0.01 mM acridan, 0.1M phosphate pH 8.9, 6.2 mM H2O2, 2.25 mM p-iodophenol, 1×10^-13 mol HRP; for I max (RLU), peak light intensity: 0.5% Tween 20, 1 mM EDTA
T1 sequence (P00433 31-338 limits assumed): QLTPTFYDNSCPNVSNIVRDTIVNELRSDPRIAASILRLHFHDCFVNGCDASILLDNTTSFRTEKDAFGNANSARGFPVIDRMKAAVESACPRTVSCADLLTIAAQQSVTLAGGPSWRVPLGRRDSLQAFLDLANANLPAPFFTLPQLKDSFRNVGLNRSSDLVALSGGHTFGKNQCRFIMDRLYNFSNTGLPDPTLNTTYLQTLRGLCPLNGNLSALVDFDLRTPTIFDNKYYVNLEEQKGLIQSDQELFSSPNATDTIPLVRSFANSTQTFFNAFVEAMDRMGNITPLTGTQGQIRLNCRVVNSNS
Method: (§1) The experiments in the following examples were performed using a Turner Designs TD-20e luminometer fitted with neutral density filter for light attenuation. Data collection, analysis and display were software controlled. Constant temperature was maintained by means of an external circulating water bath connected to the luminometer.
A 200 μL volume of a formulation containing 0.01 mM acridan compound 1a-e in 0.1M phosphate buffer, pH 8.9, […] (6.2 mM) H2 O2, 2.25 mM p-iodophenol, 0.5% (w/w) Tween 20 and 1 mM EDTA was reacted with 1×10^-13 mol of horseradish peroxidase. […] Compared below are the peak light intensity (Imax) in relative light units (RLU), the time to maximum light intensity (tmax) and total light output.

HRP [1] = molecular target: T2, HRP (Armoracia rusticana, UniProt P00433); test: Improvement of detection by phenol enhancers; format: biochemical, horseradish; details: 2.25 mM enhancer, 0.1 mM 1b, 0.8 mM H2O2, 0.5% Tween 20, 0.1M tris pH 8.5, 25° C., 1×10^-15 mol HRP, 30 min
T2 sequence (P00433 31-338 limits assumed): T1 sequence (P00433 31-338 limits assumed)
Method: as §1
To 220 μL of a formulation containing 0.1 mM 1b, 2.25 mM enhancer, 0.8 mM H2 O2, 0.5% (w/w) Tween 20 and 1 mM EDTA in 0.1M tris buffer, pH 8.5 at 25° C. an aliquot containing 1×10^-15 mol of HRP was injected and the chemiluminescence at 30 min was measured.

[2] = Improvement of detection by surfactants, background luminescence of 1b solution without peroxidase; details: Tween 20 0.5%-1%; no added peroxidase
Text: The improvement occurs through minimizing the background chemiluminescence in the absence of added peroxidase, possibly due to a slowing of the autoxidative decomposition of the ester. In one experiment, Tween 20 (0.5%-1%) decreased the background luminescence from a solution of 1b by a factor of 65 compared to a similar solution lacking the surfactant.

HRP [3] = molecular target: T2, HRP; test: Optimization of enhancer and peroxide concentration, HRP-catalyzed oxidation of 1b; format: biochemical, horseradish; details: at the best level, 7×10^-16 mol HRP, 15 min, 0.1M tris pH 8.0, substrate 1b
Method: as §1
Enhancement of light emission from the HRP-catalyzed oxidation of 1b was studied using p-iodophenol. A series of concentrations of p-iodophenol (0.23 mM-4.5 mM) was used in 0.1M tris buffer, pH 8.0. Signal to background ratios obtained after incubation with 7×10^-16 mol of HRP for 15 min were compared using different assay reagents 1b (0.1 mM-0.05 mM) and peroxide (0.2 mM-0.8 mM)]. The best compromise between sensitivity and concentration was obtained using 1.1 mMp-iodophenol with 0.8 mMperoxide and 0.05 mM 1b. At the best level, 2500-fold enhancement in chemiluminescence intensity (compared to an identical solution containing no enhancer) was obtained using p-iodophenol with 7×10^-16 mol of enzyme.

[4] = benzoyl peroxide, aqueous solution; cited from earlier work

I max (RLU), peak light intensity (horseradish peroxidase) | I total (RLU), total light output (horseradish peroxidase) | t max (min), time to maximum light intensity (horseradish peroxidase) | Molecule | S/B (HRP [1]) | other results
8160 RLU | 1.5 × 10^6 RLU | 1.4 min | Cc1ccc(S(=O)(=O)N(C(=O)C2c3ccccc3N(C)c3ccccc32)c2ccccc2)cc1 [Compound 1e] |  | 
 |  |  | O=C(O)C=Cc1ccc(O)cc1 [p-hydroxycinnamic acid] | 9 | 
247 RLU | ca. 6 × 10^5 RLU | 9.6 min | CN1c2ccccc2C(C(=O)Oc2ccccc2)c2ccccc21 [Compound 1a, Phenyl 10-methylacridan-9-carboxylate] |  | 
992 RLU | 7.4 × 10^5 RLU | 1.8 min | CN1c2ccccc2C(C(=O)Oc2ccc3cc(O)ccc3c2)c2ccccc21 [Compound 1d, 6'-Hydroxynaphthyl 10-methylacridan-9-carboxylate] |  | 
 |  |  | Tween 20 |  | decrease of background luminescence from a solution of 1b (factor, compared to a similar solution lacking the surfactant) [2]: 65
 |  |  | Oc1ccc(-c2ccccc2)cc1 [p-phenylphenol] | 200 | 
 |  |  | Oc1ccc(I)cc1 [p-iodophenol] | 600 | enhancement in chemiluminescence intensity (compared to an identical solution containing no enhancer) (HRP [3]): 2500 fold
 |  |  | c1ccc2c(c1)Cc1ccccc1N2 [acridan] |  | chemiluminescence efficiency (OCL) [4]: 3×10^-7
24 RLU | 3.6 × 10^4 RLU | 7.8 min | CN1c2ccccc2C(C(=O)Oc2cccc(O)c2)c2ccccc21 [Compound 1c, 3'-Hydroxyphenyl 10-methylacridan-9-carboxylate] |  | 
 |  |  | CCCCCCCCCCCCOS(=O)(=O)[O-].[Na+] [SDS, sodium dodecyl sulfate] |  | decrease of background luminescence from a solution of 1b (factor, compared to a similar solution lacking the surfactant) [2]: similarly lowers background luminescence
 |  |  | Oc1ccc2ccccc2c1 [Compound 2-naphthol, 2-naphthol] | 138 | 
